Source: article PMC7265341, “Quantifying CDK inhibitor selectivity in live cells” (Nature Communications, 2020)
Read-outs that look alike come from different tables or passages of the source.

Key:
CDK13/Cyclin K = CDK13/Cyclin K (Homo sapiens, UniProt Q14004); experiment: NanoBRET live-cell target engagement, CDK13-NanoLuc/Cyclin K in HEK-293; type: binding; conditions: CDK13/K, 10µM
CDK9/Cyclin K = CDK9/Cyclin K (Homo sapiens, UniProt P50750); experiment: NanoBRET live-cell target engagement, NanoLuc-CDK9/Cyclin K in HEK-293; type: binding; conditions: CDK9/K, 10µM
CDK4/Cyclin D1 = CDK4/Cyclin D1 (Homo sapiens, UniProt P11802); experiment: NanoBRET live-cell target engagement, NanoLuc-CDK4/Cyclin D1 in HEK-293; type: binding; conditions: CDK4/D1, 10µM
CDK1/Cyclin E1 = CDK1/Cyclin E1 (Homo sapiens, UniProt P06493); experiment: NanoBRET live-cell target engagement, CDK1-NanoLuc/Cyclin E1 in HEK-293; type: binding; conditions: CDK1/E1, 10µM
CDK6/Cyclin D1 = CDK6/Cyclin D1 (Homo sapiens, UniProt Q00534); experiment: NanoBRET live-cell target engagement, NanoLuc-CDK6/Cyclin D1 in HEK-293; type: binding; conditions: CDK6/D1, 10µM
CDK12/Cyclin K = CDK12/Cyclin K (Homo sapiens, UniProt Q9NYV4); experiment: NanoBRET live-cell target engagement, CDK12-NanoLuc/Cyclin K in HEK-293; type: binding; conditions: CDK12/K, 10µM
CDK7 = CDK7 (Homo sapiens, UniProt P50613); experiment: NanoBRET live-cell target engagement, NanoLuc-CDK7 in HEK-293; type: binding; conditions: CDK7
CDK20/Cyclin H = CDK20/Cyclin H (Homo sapiens, UniProt Q8IZL9); experiment: NanoBRET live-cell target engagement, NanoLuc-CDK20/Cyclin H in HEK-293; type: binding; conditions: CDK20/H, 10µM
CDK10/Cyclin L2 = CDK10/Cyclin L2 (Homo sapiens, UniProt Q15131); experiment: NanoBRET live-cell target engagement, CDK10-NanoLuc/Cyclin L2 in HEK-293; conditions: 10µM
CDK2/Cyclin E1 = CDK2/Cyclin E1 (Homo sapiens, UniProt P24941); experiment: NanoBRET live-cell target engagement, CDK2-NanoLuc/Cyclin E1 in HEK-293; type: binding; conditions: CDK2/E1, 10µM
CDK8/Cyclin C = CDK8/Cyclin C (Homo sapiens, UniProt P49336); experiment: NanoBRET live-cell target engagement, NanoLuc-CDK8/Cyclin C in HEK-293; type: binding
CDK19/Cyclin C = CDK19/Cyclin C (Homo sapiens, UniProt Q9BWU1); experiment: NanoBRET live-cell target engagement, NanoLuc-CDK19/Cyclin C in HEK-293
CDK11B/Cyclin L2 = CDK11B/Cyclin L2 (Homo sapiens, UniProt P21127); experiment: NanoBRET live-cell target engagement, CDK11B-NanoLuc/Cyclin L2 in HEK-293; type: binding; conditions: CDK11b/L2, 10µM
CDK3/Cyclin E1 = CDK3/Cyclin E1 (Homo sapiens, UniProt Q00526); experiment: NanoBRET live-cell target engagement, CDK3-NanoLuc/Cyclin E1 in HEK-293; type: binding; conditions: CDK3/E1, 10µM
CDK5/CDK5R1 = CDK5/CDK5R1 (Homo sapiens, UniProt Q00535); experiment: NanoBRET live-cell target engagement, CDK5-NanoLuc/CDK5R1 in HEK-293; type: binding; conditions: CDK5/CDK5R1, 10µM
[1] = average of replicates, read-out: Inhibition at 10µM (%) Average
[2] = read-out: Inhibition at 10µM (%) Replicate 1
[3] = read-out: Inhibition at 10µM (%) Replicate 2

Chain of CDK5/CDK5R1 (Q00535 whole entry): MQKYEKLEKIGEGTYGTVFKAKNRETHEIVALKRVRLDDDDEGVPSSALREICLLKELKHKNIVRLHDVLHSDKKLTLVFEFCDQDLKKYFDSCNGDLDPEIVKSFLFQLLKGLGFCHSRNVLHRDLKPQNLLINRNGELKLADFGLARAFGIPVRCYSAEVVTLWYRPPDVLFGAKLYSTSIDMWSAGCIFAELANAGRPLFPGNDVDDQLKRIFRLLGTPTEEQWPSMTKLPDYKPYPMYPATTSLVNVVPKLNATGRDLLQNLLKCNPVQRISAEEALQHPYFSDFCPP
Chain of CDK5/CDK5R1 (Q15078 whole entry partner): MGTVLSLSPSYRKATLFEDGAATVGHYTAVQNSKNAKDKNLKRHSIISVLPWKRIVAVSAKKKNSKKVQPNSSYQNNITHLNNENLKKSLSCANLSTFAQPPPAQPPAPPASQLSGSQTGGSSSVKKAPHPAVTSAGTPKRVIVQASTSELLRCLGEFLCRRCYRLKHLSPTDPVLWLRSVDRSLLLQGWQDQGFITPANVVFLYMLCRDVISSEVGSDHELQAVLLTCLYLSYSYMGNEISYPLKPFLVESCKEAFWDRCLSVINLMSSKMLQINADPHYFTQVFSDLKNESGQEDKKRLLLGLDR
Chain of CDK7 (P50613 whole entry): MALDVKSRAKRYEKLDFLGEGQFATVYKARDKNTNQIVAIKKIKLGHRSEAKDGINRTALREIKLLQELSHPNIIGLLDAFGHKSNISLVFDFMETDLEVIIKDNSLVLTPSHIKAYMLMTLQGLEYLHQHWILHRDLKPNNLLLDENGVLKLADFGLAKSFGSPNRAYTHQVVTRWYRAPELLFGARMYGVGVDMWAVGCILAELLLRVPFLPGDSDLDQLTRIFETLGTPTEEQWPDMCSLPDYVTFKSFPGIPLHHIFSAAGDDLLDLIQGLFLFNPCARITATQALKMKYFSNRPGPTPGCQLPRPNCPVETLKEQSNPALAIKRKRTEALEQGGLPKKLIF
Chain of CDK3/Cyclin E1 (Q00526 whole entry): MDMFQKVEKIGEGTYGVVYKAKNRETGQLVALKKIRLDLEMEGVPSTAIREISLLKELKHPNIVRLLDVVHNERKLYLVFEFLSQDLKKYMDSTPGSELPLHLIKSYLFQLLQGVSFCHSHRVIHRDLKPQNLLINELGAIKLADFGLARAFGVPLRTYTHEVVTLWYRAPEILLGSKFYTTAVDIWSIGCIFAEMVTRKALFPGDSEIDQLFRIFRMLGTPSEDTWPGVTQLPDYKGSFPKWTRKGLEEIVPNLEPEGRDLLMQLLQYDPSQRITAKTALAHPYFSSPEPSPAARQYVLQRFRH
Chain of CDK3/Cyclin E1 (P24864 whole entry partner): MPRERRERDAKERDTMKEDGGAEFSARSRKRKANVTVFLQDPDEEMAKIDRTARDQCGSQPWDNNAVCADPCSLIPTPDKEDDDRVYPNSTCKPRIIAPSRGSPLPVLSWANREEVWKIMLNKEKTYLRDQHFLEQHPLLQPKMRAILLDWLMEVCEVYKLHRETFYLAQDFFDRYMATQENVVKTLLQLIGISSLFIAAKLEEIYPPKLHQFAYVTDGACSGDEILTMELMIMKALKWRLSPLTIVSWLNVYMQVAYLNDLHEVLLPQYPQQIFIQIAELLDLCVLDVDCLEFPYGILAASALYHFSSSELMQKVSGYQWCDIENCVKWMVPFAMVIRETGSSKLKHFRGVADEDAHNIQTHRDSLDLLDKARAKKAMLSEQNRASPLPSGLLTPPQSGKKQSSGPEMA
Chain of CDK12/Cyclin K (Q9NYV4 1-1481 isoform Q9NYV4-2): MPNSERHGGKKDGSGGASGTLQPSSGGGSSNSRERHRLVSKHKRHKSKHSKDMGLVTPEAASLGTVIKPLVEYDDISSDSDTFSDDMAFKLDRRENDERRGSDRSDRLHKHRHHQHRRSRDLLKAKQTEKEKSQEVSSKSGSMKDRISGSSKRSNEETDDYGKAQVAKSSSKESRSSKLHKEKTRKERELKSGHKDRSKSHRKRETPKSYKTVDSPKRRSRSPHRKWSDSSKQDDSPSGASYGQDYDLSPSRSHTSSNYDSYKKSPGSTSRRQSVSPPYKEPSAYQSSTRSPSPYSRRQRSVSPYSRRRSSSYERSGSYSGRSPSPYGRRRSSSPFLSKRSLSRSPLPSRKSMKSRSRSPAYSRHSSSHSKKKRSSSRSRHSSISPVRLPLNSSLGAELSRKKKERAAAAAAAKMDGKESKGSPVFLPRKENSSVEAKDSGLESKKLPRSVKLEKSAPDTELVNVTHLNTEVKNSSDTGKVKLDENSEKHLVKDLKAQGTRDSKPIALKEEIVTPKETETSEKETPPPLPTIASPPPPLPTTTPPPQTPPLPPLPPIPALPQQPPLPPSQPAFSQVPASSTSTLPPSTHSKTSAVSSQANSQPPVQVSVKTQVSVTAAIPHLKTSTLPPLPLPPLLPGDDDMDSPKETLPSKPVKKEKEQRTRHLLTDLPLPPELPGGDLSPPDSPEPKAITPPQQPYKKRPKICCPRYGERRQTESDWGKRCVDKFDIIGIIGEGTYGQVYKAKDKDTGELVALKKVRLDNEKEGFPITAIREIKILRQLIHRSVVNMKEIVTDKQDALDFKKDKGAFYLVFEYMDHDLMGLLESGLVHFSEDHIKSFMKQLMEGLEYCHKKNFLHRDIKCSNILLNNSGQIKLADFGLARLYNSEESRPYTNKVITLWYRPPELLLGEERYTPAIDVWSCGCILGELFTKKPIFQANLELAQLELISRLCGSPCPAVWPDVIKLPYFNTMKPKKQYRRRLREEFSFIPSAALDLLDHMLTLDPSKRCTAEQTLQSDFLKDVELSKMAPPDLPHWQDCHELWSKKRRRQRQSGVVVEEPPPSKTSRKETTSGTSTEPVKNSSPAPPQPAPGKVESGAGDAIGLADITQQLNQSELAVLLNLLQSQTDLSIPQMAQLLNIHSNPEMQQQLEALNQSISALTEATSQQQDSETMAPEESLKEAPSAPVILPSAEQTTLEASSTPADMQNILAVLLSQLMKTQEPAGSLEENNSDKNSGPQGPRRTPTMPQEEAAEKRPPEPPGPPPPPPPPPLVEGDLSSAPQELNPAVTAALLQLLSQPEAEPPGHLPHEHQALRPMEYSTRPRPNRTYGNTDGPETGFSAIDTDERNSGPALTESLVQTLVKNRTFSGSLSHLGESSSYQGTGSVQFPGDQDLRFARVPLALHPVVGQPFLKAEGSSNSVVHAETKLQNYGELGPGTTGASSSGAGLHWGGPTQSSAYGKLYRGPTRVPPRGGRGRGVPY
Chain of CDK12/Cyclin K (O75909 whole entry partner): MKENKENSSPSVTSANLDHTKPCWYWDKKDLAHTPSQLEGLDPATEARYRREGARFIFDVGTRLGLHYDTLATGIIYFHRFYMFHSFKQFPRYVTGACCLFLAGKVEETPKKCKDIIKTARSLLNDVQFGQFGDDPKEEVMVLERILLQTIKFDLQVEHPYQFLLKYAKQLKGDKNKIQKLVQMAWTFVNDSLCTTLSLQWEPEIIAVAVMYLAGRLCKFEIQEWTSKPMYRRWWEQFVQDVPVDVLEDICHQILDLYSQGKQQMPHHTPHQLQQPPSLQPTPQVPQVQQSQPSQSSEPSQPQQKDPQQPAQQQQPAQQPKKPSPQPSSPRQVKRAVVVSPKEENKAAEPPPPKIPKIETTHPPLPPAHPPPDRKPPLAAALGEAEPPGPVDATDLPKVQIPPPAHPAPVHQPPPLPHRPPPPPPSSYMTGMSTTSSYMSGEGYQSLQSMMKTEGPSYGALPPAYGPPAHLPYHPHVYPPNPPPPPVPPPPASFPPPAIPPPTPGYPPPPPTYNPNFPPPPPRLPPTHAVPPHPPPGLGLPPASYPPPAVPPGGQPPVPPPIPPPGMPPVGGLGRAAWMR
Chain of CDK1/Cyclin E1 (P06493 whole entry): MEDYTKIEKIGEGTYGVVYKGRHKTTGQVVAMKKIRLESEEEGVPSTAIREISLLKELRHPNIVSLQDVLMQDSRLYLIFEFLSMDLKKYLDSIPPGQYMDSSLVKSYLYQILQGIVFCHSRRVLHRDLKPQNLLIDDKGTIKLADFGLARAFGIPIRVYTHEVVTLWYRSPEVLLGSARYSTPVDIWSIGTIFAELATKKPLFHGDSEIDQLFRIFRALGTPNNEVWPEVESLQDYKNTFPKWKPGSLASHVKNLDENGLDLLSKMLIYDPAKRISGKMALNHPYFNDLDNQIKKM
Chain of CDK1/Cyclin E1 (P24864 whole entry partner): as the sequence (P24864 whole entry partner) above
Chain of CDK9/Cyclin K (P50750 whole entry): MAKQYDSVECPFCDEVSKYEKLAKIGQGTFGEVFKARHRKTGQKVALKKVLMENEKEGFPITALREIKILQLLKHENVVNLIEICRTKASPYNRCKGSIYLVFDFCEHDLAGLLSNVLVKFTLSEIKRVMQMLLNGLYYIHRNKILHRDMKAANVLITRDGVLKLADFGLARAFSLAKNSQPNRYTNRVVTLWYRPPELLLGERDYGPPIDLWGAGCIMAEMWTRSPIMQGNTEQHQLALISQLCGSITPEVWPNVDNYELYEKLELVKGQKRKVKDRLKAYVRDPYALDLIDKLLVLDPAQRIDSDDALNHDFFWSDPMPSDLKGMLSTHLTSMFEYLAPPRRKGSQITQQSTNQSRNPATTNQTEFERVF
Chain of CDK9/Cyclin K (O75909 whole entry partner): as the sequence (O75909 whole entry partner) above
Chain of CDK10/Cyclin L2 (Q15131 whole entry): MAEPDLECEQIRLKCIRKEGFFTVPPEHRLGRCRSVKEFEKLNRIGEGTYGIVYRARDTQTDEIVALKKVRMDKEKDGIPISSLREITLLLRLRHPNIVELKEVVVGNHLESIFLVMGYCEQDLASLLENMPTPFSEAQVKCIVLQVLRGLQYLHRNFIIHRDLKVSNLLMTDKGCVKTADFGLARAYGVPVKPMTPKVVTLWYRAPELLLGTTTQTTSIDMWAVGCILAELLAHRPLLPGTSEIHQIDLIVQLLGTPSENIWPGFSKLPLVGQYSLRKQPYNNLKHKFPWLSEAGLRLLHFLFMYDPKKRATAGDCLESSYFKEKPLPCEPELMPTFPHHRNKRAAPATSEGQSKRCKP

CCN1CCN(Cc2ccc(NC(=O)Nc3ccc(Oc4cc(NC)ncn4)cc3)cc2C(F)(F)F)CC1 [AST-487]
inhibition at 10 µM (CDK13/Cyclin K; [1]): 47.2%
inhibition at 10 µM (CDK13/Cyclin K; [2]): 28%
inhibition at 10 µM (CDK13/Cyclin K; [3]): 66.3%
inhibition at 10 µM (CDK9/Cyclin K; [1]): 83.3%
inhibition at 10 µM (CDK9/Cyclin K; [2]): 72.3%
inhibition at 10 µM (CDK9/Cyclin K; [3]): 94.4%
inhibition at 10 µM (CDK4/Cyclin D1; [1]): 75.5%
inhibition at 10 µM (CDK4/Cyclin D1; [2]): 55.7%
inhibition at 10 µM (CDK4/Cyclin D1; [3]): 95.3%
inhibition at 10 µM (CDK1/Cyclin E1; [1]): 75.2%
inhibition at 10 µM (CDK1/Cyclin E1; [2]): 59.8%
inhibition at 10 µM (CDK1/Cyclin E1; [3]): 90.6%
inhibition at 10 µM (CDK6/Cyclin D1; [1]): 50.9%
inhibition at 10 µM (CDK6/Cyclin D1; [2]): 15.7%
inhibition at 10 µM (CDK6/Cyclin D1; [3]): 86.2%
inhibition at 10 µM (CDK12/Cyclin K; [1]): 53.4%
inhibition at 10 µM (CDK12/Cyclin K; [2]): 34.4%
inhibition at 10 µM (CDK12/Cyclin K; [3]): 72.3%
inhibition at 10 µM (CDK7; [1]): 70.4%
inhibition at 10 µM (CDK7; [2]): 74.2%
inhibition at 10 µM (CDK7; [3]): 66.6%
IC50 (CDK7; n=3 average ± SEM, n=2 average to 2 significant figures, read-out: IC50 (nM) Average*): 760 nM
IC50 (CDK7; read-out: IC50 (nM) Replicate 1): 660 nM
IC50 (CDK7; read-out: IC50 (nM) Replicate 2): 860 nM
inhibition at 10 µM (CDK20/Cyclin H; [2]): 38.4%
inhibition at 10 µM (CDK20/Cyclin H; [3]): 80.6%
inhibition at 10 µM (CDK10/Cyclin L2; read-out: Inhibition at 10µM (%) Average, CDK10/L2, average of replicates): 84.1%
inhibition at 10 µM (CDK10/Cyclin L2; read-out: Inhibition at 10µM (%) Replicate 1, CDK10/L2): 74.4%
inhibition at 10 µM (CDK10/Cyclin L2; read-out: Inhibition at 10µM (%) Replicate 2, CDK10/L2): 93.8%
inhibition at 10 µM (CDK2/Cyclin E1; [1]): 2.9%
inhibition at 10 µM (CDK2/Cyclin E1; [2]): -18.7%
inhibition at 10 µM (CDK2/Cyclin E1; [3]): 24.5%
inhibition at 10 µM (CDK8/Cyclin C; CDK8/C, average of replicates, read-out: Inhibition at 10µM (%) Average): 95.7%
inhibition at 10 µM (CDK8/Cyclin C; CDK8/C, read-out: Inhibition at 10µM (%) Replicate 1): 95.7%
inhibition at 10 µM (CDK8/Cyclin C; CDK8/C, read-out: Inhibition at 10µM (%) Replicate 2): 95.7%
IC50 (CDK8/Cyclin C; CDK8/C, n=3 average ± SEM, n=2 average to 2 significant figures, read-out: IC50 (nM) Average*): 24 nM
IC50 (CDK8/Cyclin C; CDK8/C, read-out: IC50 (nM) Replicate 1): 23 nM
IC50 (CDK8/Cyclin C; CDK8/C, read-out: IC50 (nM) Replicate 2): 25 nM
IC50 (CDK8/Cyclin C; [Probe 3] 0.5 µM, n=1, read-out: IC50): 48 nM
IC50 (CDK19/Cyclin C; IC50 (nM) Average*, CDK19/Y, n=3 average ± SEM, n=2 average to 2 significant figures): 25 nM
IC50 (CDK19/Cyclin C; IC50 (nM) Replicate 1, CDK19/C): 28 nM
IC50 (CDK19/Cyclin C; IC50 (nM) Replicate 2, CDK19/C): 22 nM
IC50 (CDK19/Cyclin C; IC50, [Probe 1] 0.5 µM (plot: [Probe 3]), n=1): 9.4 nM
IC50 (CDK19/Cyclin C; IC50, [Probe 1] 1 µM (plot: [Probe 3]), n=1): 10 nM
inhibition at 10 µM (CDK19/Cyclin C; read-out: Inhibition at 10µM (%) Average, CDK19/C, average of replicates): 98.4%
inhibition at 10 µM (CDK19/Cyclin C; read-out: Inhibition at 10µM (%) Replicate 1, CDK19/C): 94.2%
inhibition at 10 µM (CDK19/Cyclin C; read-out: Inhibition at 10µM (%) Replicate 2, CDK19/C): 103%
inhibition at 10 µM (CDK11B/Cyclin L2; [1]): 10.3%
inhibition at 10 µM (CDK11B/Cyclin L2; [2]): 10.9%
inhibition at 10 µM (CDK11B/Cyclin L2; [3]): 9.7%
inhibition at 10 µM (CDK3/Cyclin E1; [1]): 71.7%
inhibition at 10 µM (CDK3/Cyclin E1; [2]): 58%
inhibition at 10 µM (CDK3/Cyclin E1; [3]): 85.5%
inhibition at 10 µM (CDK5/CDK5R1; [1]): 38.1%
inhibition at 10 µM (CDK5/CDK5R1; [2]): 12.7%
inhibition at 10 µM (CDK5/CDK5R1; [3]): 63.5%
